Data as given in BindingDB's records for patent US20250263395 (Monte Rosa Therapeutics, 2025).

target: Protein cereblon (Homo sapiens, UniProt Q96SW2); test: HTRF assay
Description: Biochemical assays were conducted in Greiner white 384 well HiBase plates (Cat. No 784075-25) in 10 μL total volume. A one pot detection solution of CRBN-DDB1 (2.5 nM), Anti-His Terbium Cryptate Gold (1×, PerkinElmer Cat. #: 61HI2TLB), and Cy5-Thalidomide (100 nM, Tenova Cat.: T52461) was prepared in 20 mM HEPES, 20 mM NaCl, 0.2 mM TCEP, 0.2 mM EDTA, and 0.005% Tween20 was dispensed to each assay plate. Compounds were stored in dry, ambient temperatures at 10 mM. A 10-point, 1:3 dilution series was prepared from 10 mM stock concentrations in Echo-compatible LDV plates. 10 nL of each compound dilution series was dispensed into assays wells using an Echo 650 (Labcyte inc. USA). 10 nL of 10 mM Lenalidomide was transferred into the active-control wells for the assay and 10 nL of DMSO was transferred into the neutral-control wells. The assay was then allowed to incubate for 30 min at ambient temperature after transferring compound. Plate measurements were taken on a Pherastar FSX (BMG Labtech, Germany) using the HTRF Red filter (Ex. 337 nm, em1: 620 nm, em2: 665 nm) (Flashes: 50, Integration time: 60-400 us, Z-height: 10 mm, Ratio-multiplier: 10,000).

Sequence of Protein cereblon (Q96SW2 whole entry): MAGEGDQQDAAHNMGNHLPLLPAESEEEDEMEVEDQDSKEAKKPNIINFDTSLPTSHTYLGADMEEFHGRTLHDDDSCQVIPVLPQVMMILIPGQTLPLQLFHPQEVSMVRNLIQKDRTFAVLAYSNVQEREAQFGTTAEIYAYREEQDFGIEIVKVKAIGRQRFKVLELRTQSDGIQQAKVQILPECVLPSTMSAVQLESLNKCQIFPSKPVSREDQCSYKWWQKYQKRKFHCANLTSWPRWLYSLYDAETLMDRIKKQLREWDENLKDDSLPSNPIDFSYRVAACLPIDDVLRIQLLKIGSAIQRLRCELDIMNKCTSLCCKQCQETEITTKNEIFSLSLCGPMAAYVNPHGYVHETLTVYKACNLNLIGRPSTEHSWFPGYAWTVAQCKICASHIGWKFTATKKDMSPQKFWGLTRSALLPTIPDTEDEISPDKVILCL

SMILES | Ki [nM]
O=C1CCC(c2c(F)cc(N3CC(NC(=O)OCC4CC5(CCC5)C4)C3)cc2F)C(=O)N1 (stereo not given) [US20250263395, Compound 1] | < 100
Cc1ccnc(N2CC(OC(=O)NC3CN(c4cc(F)c(C5CCC(=O)NC5=O)c(F)c4)C3)C2)c1 (stereo not given) [US20250263395, Compound 6] | < 100
Cc1cccc(N(C)C(=O)N2CC(OC(=O)NC3CN(c4cc(F)c(C5CCC(=O)NC5=O)c(F)c4)C3)C2)c1 (stereo not given) [US20250263395, Compound 10] | < 100
O=C1CCC(c2c(F)cc(N3CC(NC(=O)OC4CN(C(=O)N5CCCC5)C4)C3)cc2F)C(=O)N1 (stereo not given) [US20250263395, Compound 32] | < 100
Cc1ccc(C)c(N(C)C(=O)C23CC(OC(=O)NC4CN(c5cc(F)c(C6CCC(=O)NC6=O)c(F)c5)C4)(C2)C3)c1 (stereo not given) [US20250263395, Compound 111] | < 100
